# How the values were obtained:
# Assay type in all cases: cell-based
# SK-OV-3 = assay: NCI screen, growth of human tumor cells: Ovarian Cancer SK-OV-3; conditions: SK-OV-3 (Ovarian Cancer), 10^−4 molar
# Procedure, shortened: (§1)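 Under the NCI protocol, every compound is profiled with sixty or more data points. Each point ties a cancer type and a molar screening concentration to a percent growth value.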
# K562 = assay: NCI screen, growth of human tumor cells: Leukemia K562; conditions: K562 (Leukemia), 10^−4 molar
# Procedure, shortened: as §1
# UACC-257 = assay: NCI screen, growth of human tumor cells: Melanoma UACC-257; conditions: UACC-257 (Melanoma), 10^−4 molar
# Procedure, shortened: as §1
# SW620 = assay: NCI screen, growth of human tumor cells: Colon Cancer SW620; conditions: SW620, 10^−4 molar
# Procedure, shortened: as §1
# SF-539 = assay: NCI screen, growth of human tumor cells: CNS Cancer SF-539; conditions: SF-539 (CNS Cancer), 10^−4 molar
# Procedure, shortened: as §1
# XF 498 = assay: NCI screen, growth of human tumor cells: CNS Cancer XF 498; conditions: XF 498 (CNS Cancer), 10^−4 molar
# Method: (§2) The compounds listed in Section II are arranged by their NSC number followed by the percent of growth of human tumor cells when the compound is administrated at 10^−4 molar concentration.
# (§3) In the NCI screening process, each compound was tested and described by a minimum of 60 data points. The test data include, but are not limited to the type of cancer, the molar concentration used in the screen, and the percent growth of the cancer. In some cases, NMR and elemental analysis were used for structural assignment.
# DMS114 = assay: NCI screen, growth of human tumor cells: Small Cell Lung Cancer DMS114; conditions: 10^−4 molar
# Method: as §2, §3
# LOXIMVI = assay: NCI screen, growth of human tumor cells: Melanoma LOXIMVI; conditions: LOXIMVI, 10^−4 molar
# Procedure, shortened: as §1
# UO-31 = assay: NCI screen, growth of human tumor cells: Renal Cancer UO-31; conditions: UO-31, 10^−4 molar
# Procedure, shortened: as §1
# SNB-75 = assay: NCI screen, growth of human tumor cells: CNS Cancer SNB-75; conditions: SNB-75 (CNS Cancer), 10^−4 molar
# Procedure, shortened: as §1
# SK-MEL-28 = assay: NCI screen, growth of human tumor cells: Melanoma SK-MEL-28; conditions: SK-MEL-28 (Melanoma), 10^−4 molar
# Procedure, shortened: as §1
# COLO205 = assay: NCI screen, growth of human tumor cells: Colon Cancer COLO205; conditions: COLO205, 10^−4 molar
# Procedure, shortened: as §1
# NCI-H226 = assay: NCI screen, growth of human tumor cells: Non-Small Cell Lung NCI-H226; conditions: NCI-H226, 10^−4 molar
# Procedure, shortened: as §1
# DMS273 = assay: NCI screen, growth of human tumor cells: Small Cell Lung Cancer DMS273; conditions: 10^−4 molar
# Method: as §2, §3
# HOP-62 = assay: NCI screen, growth of human tumor cells: Non-Small Cell Lung HOP-62; conditions: HOP-62, 10^−4 molar
# Procedure, shortened: as §1
# NCI-H522 = assay: NCI screen, growth of human tumor cells: Non-Small Cell Lung NCI-H522; conditions: NCI-H522 (Non-Small Cell Lung), 10^−4 molar
# Procedure, shortened: as §1
# UACC-62 = assay: NCI screen, growth of human tumor cells: Melanoma UACC-62; conditions: UACC-62, 10^−4 molar
# Procedure, shortened: as §1
# SF-268 = assay: NCI screen, growth of human tumor cells: CNS Cancer SF-268; conditions: SF-268 (CNS Cancer), 10^−4 molar
# Procedure, shortened: as §1
# SR = assay: NCI screen, growth of human tumor cells: Leukemia SR; conditions: SR
# Procedure, shortened: as §1
# SN12C = assay: NCI screen, growth of human tumor cells: Renal Cancer SN12C; conditions: SN12C (Renal Cancer), 10^−4 molar
# Procedure, shortened: as §1
# RXF-631 = assay: NCI screen, growth of human tumor cells: Renal Cancer RXF-631; conditions: RXF-631 (Renal Cancer), 10^−4 molar
# Method: as §2, §3
# SK-MEL-2 = assay: NCI screen, growth of human tumor cells: Melanoma SK-MEL-2; conditions: SK-MEL-2, 10^−4 molar
# Procedure, shortened: as §1
# HT29 = assay: NCI screen, growth of human tumor cells: Colon Cancer HT29; conditions: HT29 (Colon Cancer), 10^−4 molar
# Procedure, shortened: as §1
# SK-MEL-5 = assay: NCI screen, growth of human tumor cells: Melanoma SK-MEL-5; conditions: SK-MEL-5, 10^−4 molar
# Procedure, shortened: as §1
# OVCAR-3 = assay: NCI screen, growth of human tumor cells: Ovarian Cancer OVCAR-3; conditions: OVCAR-3 (Ovarian Cancer), 10^−4 molar
# Procedure, shortened: as §1
# OVCAR-8 = assay: NCI screen, growth of human tumor cells: Ovarian Cancer OVCAR-8; conditions: OVCAR-8 (Ovarian Cancer), 10^−4 molar
# Procedure, shortened: as §1
# 786-0 = assay: NCI screen, growth of human tumor cells: Renal Cancer 786-0; conditions: 786-0, 10^−4 molar
# Procedure, shortened: as §1
# EKVX = assay: NCI screen, growth of human tumor cells: Non-Small Cell Lung EKVX; conditions: EKVX (Non-Small Cell Lung), 10^−4 molar
# Procedure, shortened: as §1
# IGROVI = assay: NCI screen, growth of human tumor cells: Ovarian Cancer IGROVI; conditions: IGROVI (Ovarian Cancer), 10^−4 molar
# Procedure, shortened: as §1
# TK-10 = assay: NCI screen, growth of human tumor cells: Renal Cancer TK-10; conditions: TK-10 (Renal Cancer), 10^−4 molar
# Method: as §3
# HL-60 (TB) = assay: NCI screen, growth of human tumor cells: Leukemia HL-60 (TB); conditions: HL-60 (TB) (Leukemia), 10^−4 molar
# Method: as §3
# CAKI-1 = assay: NCI screen, growth of human tumor cells: Renal Cancer CAKI-1; conditions: CAKI-1, 10^−4 molar
# Procedure, shortened: as §1
# HOP-92 = assay: NCI screen, growth of human tumor cells: Non-Small Cell Lung HOP-92; conditions: HOP-92, 10^−4 molar
# Procedure, shortened: as §1
# AS49/ATCC = assay: NCI screen, growth of human tumor cells: Non-Small Cell Lung AS49/ATCC; conditions: AS49/ATCC (Non-Small Cell Lung), 10^−4 molar
# Procedure, shortened: as §1
# OVCAR-4 = assay: NCI screen, growth of human tumor cells: Ovarian Cancer OVCAR-4; conditions: OVCAR-4 (Ovarian Cancer), 10^−4 molar
# Procedure, shortened: as §1
# NCI-H322M = assay: NCI screen, growth of human tumor cells: Non-Small Cell Lung NCI-H322M; conditions: NCI-H322M (Non-Small Cell Lung), 10^−4 molar
# Procedure, shortened: as §1
# NCI-H23 = assay: NCI screen, growth of human tumor cells: Non-Small Cell Lung NCI-H23
# Procedure, shortened: as §1
# MALME-3M = assay: NCI screen, growth of human tumor cells: Melanoma MALME-3M; conditions: MALME-3M, 10^−4 molar
# Procedure, shortened: as §1
# A498 = assay: NCI screen, growth of human tumor cells: Renal Cancer A498; conditions: A498, 10^−4 molar
# LXFL529 = assay: NCI screen, growth of human tumor cells: Non-Small Cell Lung Cancer LXFL529
# SNB-78 = assay: NCI screen, growth of human tumor cells: CNS Cancer SNB-78; conditions: SNB-78 (CNS Cancer), 10^−4 molar
# Method: as §2, §3
# CCRF-CEM = assay: NCI screen, growth of human tumor cells: Leukemia CCRF-CEM; conditions: CCRF-CEM
# Procedure, shortened: as §1
# RPMI-8226 = assay: NCI screen, growth of human tumor cells: Leukemia RPMI-8226
# Procedure, shortened: as §1
# MOLT-4 = assay: NCI screen, growth of human tumor cells: Leukemia MOLT-4; conditions: MOLT-4 (Leukemia), 10^−4 molar
# Procedure, shortened: as §1
# HCC-2998 = assay: NCI screen, growth of human tumor cells: HCC-2998 (listed under Non-Small Cell Lung); conditions: HCC-2998, 10^−4 molar
# Procedure, shortened: as §1
# SF-295 = assay: NCI screen, growth of human tumor cells: CNS Cancer SF-295; conditions: SF-295 (CNS Cancer), 10^−4 molar
# Procedure, shortened: as §1
# KM12 = assay: NCI screen, growth of human tumor cells: Colon Cancer KM12; conditions: KM12 (Colon Cancer), 10^−4 molar
# Procedure, shortened: as §1
# HCT-116 = assay: NCI screen, growth of human tumor cells: Colon Cancer HCT-116; conditions: HCT-116, 10^−4 molar
# Procedure, shortened: as §1
smiles,measurement,setting,value
"O=S1(=O)OCCOS(=O)(=O)C1(I)I [NSC 648308, ethylene diiodomethanedisulfonate]",percent of growth of human tumor cells,SK-OV-3,−49%
same,percent of growth of human tumor cells,K562,−16%
same,percent of growth of human tumor cells,UACC-257,−54%
same,% Growth,SW620,−55%
same,percent of growth of human tumor cells,SF-539,−25%
same,percent of growth of human tumor cells,XF 498,−67%
same,percent of growth of human tumor cells,DMS114,−46%
same,% Growth,LOXIMVI,−93%
same,% Growth,UO-31,−95%
same,percent of growth of human tumor cells,SNB-75,−36%
same,percent of growth of human tumor cells,SK-MEL-28,−29%
same,% Growth,COLO205,−61%
same,% Growth,NCI-H226,−91%
same,percent of growth of human tumor cells,DMS273,−45%
same,% Growth,HOP-62,−69%
same,percent of growth of human tumor cells,NCI-H522,−45%
same,% Growth,UACC-62,−82%
same,percent of growth of human tumor cells,SF-268,−11%
same,% Growth,SR; 10^−4 molar,−37%
same,% Growth,SR; 10^−5 molar,48%
same,percent of growth of human tumor cells,SN12C,−61%
same,percent of growth of human tumor cells,RXF-631,−44%
same,% Growth,SK-MEL-2,−80%
same,percent of growth of human tumor cells,HT29,−18%
same,% Growth,SK-MEL-5,−91%
same,percent of growth of human tumor cells,OVCAR-3,−14%
same,percent of growth of human tumor cells,OVCAR-8,−25%
same,% Growth,786-0,−95%
same,percent of growth of human tumor cells,EKVX,−35%
same,percent of growth of human tumor cells,IGROVI,−24%
same,percent of growth of human tumor cells,TK-10,−19%
same,percent of growth of human tumor cells,HL-60 (TB),−16%
same,% Growth,CAKI-1,−71%
same,% Growth,HOP-92,−78%
same,percent of growth of human tumor cells,AS49/ATCC,−17%
same,percent of growth of human tumor cells,OVCAR-4,−39%
same,percent of growth of human tumor cells,NCI-H322M,−45%
same,% Growth,"NCI-H23; NCI-H23, 10^−4 molar",−70%
same,% Growth,"NCI-H23; NCI-H23, 10^−5 molar",56%
same,% Growth,MALME-3M,−80%
same,% Growth,A498,−100%
same,% Growth,"LXFL529; LXFL529, 10^−4 molar",−72%
same,% Growth,"LXFL529; LXFL529, 10^−5 molar",55%
same,percent of growth of human tumor cells,SNB-78,−6%
same,% Growth,CCRF-CEM; 10^−4 molar,−44%
same,% Growth,CCRF-CEM; 10^−5 molar,55%
same,% Growth,"RPMI-8226; RPMI-8226, 10^−4 molar",−37%
same,% Growth,"RPMI-8226; RPMI-8226, 10^−5 molar",48%
same,percent of growth of human tumor cells,MOLT-4,−22%
same,% Growth,HCC-2998,−99%
same,percent of growth of human tumor cells,SF-295,−4%
same,percent of growth of human tumor cells,KM12,−58%
same,% Growth,HCT-116,−100%
